Measurements taken from patent US5268308A, “Immunoassay for pyridostigmine” (priority 1989, dated 1993).

Molecular target: Pyridostigmine Antibody
Assay: Cross-reactivity with pyridostigmine antibody in RIA (competition with labeled pyridostigmine)
Type: binding, rabbit (male New Zealand white)
Conditions: labeled pyridostigmine 5000 DPM; maximum tested 500 ng
Method: Antibodies to the pyridostigmine-BSA immunogen were produced by injecting male New Zealand white rabbits. Prior to injection, the immunogen was emulsified with an equal volume of complete Freund's adjuvant, purchased from Difco Laboratories. The initial immunization consisted of 0.8 mg of protein injected intracutaneously into the back of the rabbits. Booster injections containing 0.8 mg of immunogen and incomplete Freund's adjuvant were administered every one or two months for the next seven months. Blood was collected one week after each booster injection from the central ear vein. The blood was allowed to clot at room temperature and then centrifuged at 1500×g for 15 minutes. The separated serum was stored frozen at -20° C. until assayed for the presence of pyridostigmine antibody. […] FIG. 1 is the antibody dilution curve for pyridostigmine.
In the assay procedure tritiated pyridostigmine having specificity of […] was used as tracer. The dilution of tracer, antisera and pyridostigmine standards were made using 0.01 M phosphate buffer containing 150 mM sodium chloride with a pH of 7.4.. […] Both standard and sample tubes were always analyzed in duplicate. The assay was carried out according to the protocol shown in. Table 1 with the reagents were added to the assay tubes in the order shown in.
According to the protocol for the RIA of the present invention, after the addition of antisera, the contents of the tubes were mixed and incubated for 3 hours at 4° C. The antigen which bound to the antibody was separated by adding 100% saturated ammonium sulfate and centrifuging at 2500×g for 15 minutes. After aspiration of the supernatant, the precipitate was washed one time with 50% saturated ammonium sulfate; then the mixture was centrifuged and the supernatent removed. The precipitate was dissolved in 1.0 ml of distilled water, and the solution was transferred to a scintillation vial containing 10.0 ml of acquasol.
Cross-reactivity of various compounds with pyridostigmine antibody was determined in the RIA. […] Each compound was tested for cross-reactivity with the antibody. The maximum concentration of each compound tested was 500 ng.

Structure (SMILES) | IC 50 (50% inhibition of binding of 3H-pyridostigmine to the antibody) [ng]
C[n+]1cccc(O)c1 [3-Hydroxy-N-methyl-pyridostigmine] | > 500
C[n+]1ccccc1/C=N/O [Pralidoxime Chloride] | > 500
CN(C)C(=O)Oc1cccc([N+](C)(C)C)c1 [Neostigmine] | > 500
CNC(=O)Oc1ccc2c(c1)[C@]1(C)CCN(C)[C@@H]1N2C [Physostigmmine] | > 500
